From PubChem BioAssay AID256 (DTP/NCI, 2004)
Values joined by “and” are separate entries in the source; they are usually repeats but may differ in a detail not shown here. Identical values can stand only once. Inconclusive results and toxic doses are left out. The calls were made as follows: active = survival T/C of 150% or more; inactive = T/C below 125% in these data.

Test system: CD2F1 mice, L1210 leukemia ip, survival T/C
Assay: NCI In Vivo Anticancer Drug Screen. Data for tumor model L1210 Leukemia (intraperitoneal) in CD2F1 (CDF1) mice
Conditions: higher = longer survival
Summary of the method: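 Compound-dosed mice with transplantable tumor versus matched vehicle controls; endpoint ratio T/C reported.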

[1] = endpoint: mean survival time, dose: 100.0 mg/kg/injection, schedule: Q04DX003 (ip), vehicle: other
[2] = endpoint: mean survival time, dose: 200.0 mg/kg/injection, schedule: Q04DX003 (ip), vehicle: other
[3] = endpoint: mean survival time, dose: 100.0 mg/kg/injection, schedule: Q01DX009 (ip), vehicle: saline with Tween-80
[4] = endpoint: mean survival time, dose: 100.0 mg/kg/injection, schedule: Q04DX003 (ip), vehicle: saline with Tween-80
[5] = endpoint: mean survival time, dose: 200.0 mg/kg/injection, schedule: Q01DX009 (ip), vehicle: saline with Tween-80
[6] = endpoint: mean survival time, dose: 200.0 mg/kg/injection, schedule: Q04DX003 (ip), vehicle: saline with Tween-80
[7] = endpoint: mean survival time, dose: 400.0 mg/kg/injection, schedule: Q01DX009 (ip), vehicle: saline with Tween-80
[8] = endpoint: mean survival time, dose: 400.0 mg/kg/injection, schedule: Q04DX003 (ip), vehicle: saline with Tween-80
[9] = endpoint: mean survival time, dose: 50.0 mg/kg/injection, schedule: Q01DX009 (ip), vehicle: saline with Tween-80

Measured: T/C

COc1cc2nncc(Sc3cnnc4ccccc34)c2cc1OC
inactive: endpoint: mean survival time, dose: 100.0 mg/kg/injection, schedule: Q01DX001 (ip), vehicle: other 92 % of control | endpoint: mean survival time, dose: 200.0 mg/kg/injection, schedule: Q01DX001 (ip), vehicle: other 86 % of control | endpoint: mean survival time, dose: 400.0 mg/kg/injection, schedule: Q01DX001 (ip), vehicle: other 92 % of control

O=C(O)Cc1ccc(Cl)c(Cl)c1
inactive: endpoint: mean survival time, dose: 50.0 mg/kg/injection, schedule: Q04DX003 (ip), vehicle: other 97 % of control | [1] 100 % of control | [2] 96 % of control

CCOC(=O)c1sc(N)c(C(=O)OCC)c1C
inactive: [3] 98 % of control | [4] 95 % of control | [5] 93 % of control | [6] 95 % of control | [7] 91 % of control | [8] 101 % of control

CC(=O)COc1cccc(C)c1
inactive: [4] 100 % of control | [6] 103 % of control | [8] 93 % of control

O=C(N/N=C/c1ccccc1O)c1ccncc1
inactive: [3] 98 % of control | [4] 98 % of control | [5] 95 % of control | [6] 96 % of control | [7] 98 % of control | [8] 98 % of control

CCCC(NC(=O)CN)C(=O)O (configuration not stated)
inactive: endpoint: mean survival time, dose: 100.0 mg/kg/injection, schedule: Q04DX003 (ip), vehicle: saline 100 % of control | endpoint: mean survival time, dose: 200.0 mg/kg/injection, schedule: Q04DX003 (ip), vehicle: saline 97 % of control | endpoint: mean survival time, dose: 400.0 mg/kg/injection, schedule: Q04DX003 (ip), vehicle: saline 102 % of control

O.O.O.O.[Fe].[Fe].[Fe].[NH-]c1c(C(=O)O)ncn1C1[OH+]C(CO)C(O)C1O.[NH-]c1c(C(=O)O)ncn1C1[OH+]C(CO)C(O)C1O (configuration not stated)
inactive: endpoint: mean survival time, dose: 12.5 mg/kg/injection, schedule: Q01DX005 (ip), vehicle: distilled water + Tween-80 94 % of control | endpoint: mean survival time, dose: 25.0 mg/kg/injection, schedule: Q01DX005 (ip), vehicle: distilled water + Tween-80 97 % of control | endpoint: mean survival time, dose: 50.0 mg/kg/injection, schedule: Q01DX005 (ip), vehicle: distilled water + Tween-80 103 % of control | endpoint: mean survival time, dose: 200.0 mg/kg/injection, schedule: Q01DX005 (ip), vehicle: distilled water + Tween-80 88 % of control

C=C(CC(=O)O)C(=O)O (tested in a mixture with another compound)
inactive: [9] 108 % of control | [3] 120 % of control | [4] 102 % of control | [5] 105 % of control | [6] 102 % of control

O=C1C=C(c2ccccc2)C(c2ccccc2)C(c2ccccc2)C1 (configuration not stated)
inactive: [3] 93 % of control | [5] 93 % of control | [7] 96 % of control

Clc1nnc(Nc2ccccc2)c2ccccc12
inactive: [1] 94 % of control | [2] 88 % of control | endpoint: mean survival time, dose: 400.0 mg/kg/injection, schedule: Q04DX003 (ip), vehicle: other 88 % of control

Cc1nocc1CC1=C2CCCC(=O)C2(C)CCC1=O (configuration not stated)
inactive: endpoint: mean survival time, dose: 100.0 mg/kg/injection, schedule: Q01DX001 (ip), vehicle: alcohol 94 % of control | endpoint: mean survival time, dose: 200.0 mg/kg/injection, schedule: Q01DX001 (ip), vehicle: alcohol 92 % of control | endpoint: mean survival time, dose: 400.0 mg/kg/injection, schedule: Q01DX001 (ip), vehicle: alcohol 95 % of control

Cc1cc2oc(=O)cc(N3CCOCC3)c2c(=O)o1
inactive: [4] 110 % of control | [6] 109 % of control

CCCC[As](=O)(O)C(C)C
inactive: endpoint: mean survival time, dose: 2.7 mg/kg/injection, schedule: Q01DX009 (ip), vehicle: saline 93 % of control | endpoint: mean survival time, dose: 4.1 mg/kg/injection, schedule: Q01DX009 (ip), vehicle: saline 102 % of control | endpoint: mean survival time, dose: 5.5 mg/kg/injection, schedule: Q04DX003 (ip), vehicle: saline 100 % of control | endpoint: mean survival time, dose: 6.25 mg/kg/injection, schedule: Q01DX009 (ip), vehicle: saline 104 % of control | endpoint: mean survival time, dose: 8.2 mg/kg/injection, schedule: Q04DX003 (ip), vehicle: saline 104 % of control | endpoint: mean survival time, dose: 9.3 mg/kg/injection, schedule: Q01DX009 (ip), vehicle: saline 100 % of control | endpoint: mean survival time, dose: 11.0 mg/kg/injection, schedule: Q04DX002 (ip), vehicle: saline 106 % of control | endpoint: mean survival time, dose: 12.5 mg/kg/injection, schedule: Q04DX003 (ip), vehicle: saline 104 % of control | endpoint: mean survival time, dose: 14.0 mg/kg/injection, schedule: Q01DX009 (ip), vehicle: saline 93 % of control | endpoint: mean survival time, dose: 16.0 mg/kg/injection, schedule: Q04DX002 (ip), vehicle: saline 113 % of control | endpoint: mean survival time, dose: 18.0 mg/kg/injection, schedule: Q04DX003 (ip), vehicle: saline 100 % of control | endpoint: mean survival time, dose: 22.0 mg/kg/injection, schedule: Q01DX001 (ip), vehicle: saline 104 % of control | endpoint: mean survival time, dose: 25.0 mg/kg/injection, schedule: Q04DX002 (ip), vehicle: saline 100 % of control | endpoint: mean survival time, dose: 28.0 mg/kg/injection, schedule: Q04DX003 (ip), vehicle: saline 102 % of control | endpoint: mean survival time, dose: 35.0 mg/kg/injection, schedule: Q01DX001 (ip), vehicle: saline 102 % of control | endpoint: mean survival time, dose: 35.0 mg/kg/injection, schedule: Q04DX002 (ip), vehicle: saline 111 % of control | endpoint: mean survival time, dose: 50.0 mg/kg/injection, schedule: Q01DX001 (ip), vehicle: saline 104 % of control | endpoint: mean survival time, dose: 55.0 mg/kg/injection, schedule: Q04DX002 (ip), vehicle: saline 95 % of control | endpoint: mean survival time, dose: 75.0 mg/kg/injection, schedule: Q01DX001 (ip), vehicle: saline 111 % of control

C=CC#N
inactive: endpoint: mean survival time, dose: 12.5 mg/kg/injection, schedule: Q04DX003 (ip), vehicle: saline with Tween-80 105 % of control | endpoint: mean survival time, dose: 25.0 mg/kg/injection, schedule: Q04DX003 (ip), vehicle: saline with Tween-80 102 % of control | endpoint: mean survival time, dose: 50.0 mg/kg/injection, schedule: Q04DX003 (ip), vehicle: saline with Tween-80 108 % of control

CN(C)N=Nc1ccc(S(N)(=O)=O)cc1C(N)=O
inactive: endpoint: mean survival time, dose: 18.8 mg/kg/injection, schedule: Q01DX009 (ip), vehicle: Klucel (hydroxypropylcellulose) (HPC) 96 % of control and 106 % of control | endpoint: mean survival time, dose: 37.5 mg/kg/injection, schedule: Q01DX009 (ip), vehicle: Klucel (hydroxypropylcellulose) (HPC) 98 % of control and 110 % of control | endpoint: mean survival time, dose: 75.0 mg/kg/injection, schedule: Q01DX009 (ip), vehicle: Klucel (hydroxypropylcellulose) (HPC) 120 % of control | endpoint: mean survival time, dose: 300.0 mg/kg/injection, schedule: Q01DX009 (ip), vehicle: Klucel (hydroxypropylcellulose) (HPC) 117 % of control and 111 % of control

C=CCNc1ccc(OC)cc1
inactive: [4] 101 % of control | [6] 95 % of control

Cc1ccc(S(=O)(=O)Nc2ccc(I)cc2)cc1
inactive: [9] 94 % of control | [3] 97 % of control | [4] 92 % of control | [5] 95 % of control | [6] 94 % of control | [8] 86 % of control

COc1ccc(Cl)cc1N
inactive: [4] 94 % of control | [6] 92 % of control | [8] 96 % of control

Cc1cc(N/N=c2/c3ccccc3n(O)c3c2ccc2ccccc23)ccc1O
inactive: [4] 104 % of control | [6] 104 % of control | [8] 104 % of control

CCCCCCCC(=O)N1C(=O)CCC1C(=O)O (configuration not stated)
inactive: endpoint: mean survival time, dose: 100.0 mg/kg/injection, schedule: Q01DX001 (ip), vehicle: Klucel (hydroxypropylcellulose) (HPC) 100 % of control | endpoint: mean survival time, dose: 200.0 mg/kg/injection, schedule: Q01DX001 (ip), vehicle: Klucel (hydroxypropylcellulose) (HPC) 100 % of control | endpoint: mean survival time, dose: 400.0 mg/kg/injection, schedule: Q01DX001 (ip), vehicle: Klucel (hydroxypropylcellulose) (HPC) 104 % of control

Cc1ccc(N2C(=O)CC(Sc3ccccc3N)C2=O)cc1Cl (configuration not stated)
inactive: [3] 95 % of control | [5] 103 % of control | [7] 95 % of control

CC1=CSCC(=O)N1
inactive: [4] 101 % of control | [6] 98 % of control | [8] 108 % of control

O=C(NC(Cc1ccc(I)cc1)C(=O)O)c1ccc(Br)cc1 (configuration not stated)
inactive: endpoint: median survival time, dose: 25.0 mg/kg/injection, schedule: Q01DX009 (ip), vehicle: sodium bicarbonate 98 % of control | endpoint: median survival time, dose: 50.0 mg/kg/injection, schedule: Q01DX009 (ip), vehicle: sodium bicarbonate 101 % of control | endpoint: median survival time, dose: 100.0 mg/kg/injection, schedule: Q01DX009 (ip), vehicle: sodium bicarbonate 101 % of control | endpoint: median survival time, dose: 200.0 mg/kg/injection, schedule: Q01DX009 (ip), vehicle: sodium bicarbonate 96 % of control
